Assay results from paper PMC7344659, “Bioactivity of Spongian Diterpenoid Scaffolds from the Antarctic Sponge Dendrilla antarctica” (Marine Drugs, 2020).
Read-outs that look alike come from different tables or passages of the source.

Tests used:
[1] = test system: primary human hepatocytes; assay: Cytotoxicity towards uninfected primary human hepatocytes; type: cell-based; conditions: for inhibition at 5 µg/mL: Hepatocyte, 5 μg/mL, uninfected primary human hepatocytes, % (Standard Deviation), n = 3, read-out: Plasmodium falciparum Inhibition at 5 μg/mL Uninfected PHHs
Protocol: (§1) The full suite of Dendrilla antarctica-derived compounds, with the exception of darwinolide (1) and dendrillin D (12) owing to mass limitations, were tested against Leishmania donovani infected macrophages, liver-stage sporozoites in primary human hepatocytes, and against MRSA biofilm. Cytotoxicity was evaluated using the mammalian J774A.1 cell line in L. donovani-active compounds, while primary human hepatocytes were evaluated for malaria-active compounds.
(§2) For the Plasmodium falciparum infected liver cells, screening was conducted at a fixed concentration of 5 µg/mL for each compound, and activities representing 60% inhibition and 100% inhibition are reported in comparison with the positive control primaquine. […] Aplysulphurin (2) at ≤13 μM was also active at the highest level.
(§3) The liver-stage Plasmodium falciparum assay was conducted as previously reported.

J774A.1 macrophages [2] = assay: J774A.1-cell cytotoxicity assay (uninfected macrophage); type: cell-based; conditions: Mus musculus, J774.A1; cytotoxicity, uninfected J774A.1 macrophages; single point determination; read-out: Leishmania donovani IC50 Uninfected Macrophage
Protocol: as §1
(§4) The Leishmania donovani cell line infected macrophage assay and cytotoxicity screen were conducted as previously described.

Plasmodium falciparum = assay: Liver-stage Plasmodium falciparum assay in primary human hepatocytes; type: cell-based; conditions: for inhibition at 5 µg/mL: Plasmodium falciparum, Hepatocyte, 5 μg/mL, infected primary human hepatocytes, % (Standard Deviation), n = 3, read-out: Plasmodium falciparum Inhibition at 5 μg/mL Infected PHHs
Protocol: as §1, §2, §3

MRSA biofilm = MRSA biofilm eradication assay; type: cell-based, methicillin-resistant Staphylococcus aureus; conditions: for inhibition at 25 µg/mL / inhibition at 50 µg/mL / inhibition at 100 µg/mL: Staphylococcus aureus, MRSA, % (Std. Dev.), n = 6; for inhibition at 25 µg/mL: 25 μg/mL; for inhibition at 50 µg/mL: 50 μg/mL; for inhibition at 100 µg/mL: 100 μg/mL
Protocol: The MRSA biofilm assay was carried out at concentrations of 100, 50, and 25 µg/mL for each compound, and activities representing 50% and 90% eradication are reported.
The MRSA biofilm assay was conducted as previously reported.

Leishmania donovani [3] = assay: Leishmania donovani infected macrophage assay; type: cell-based; conditions: Leishmania donovani, J774.A1, J774A.1 macrophages; single point determination; read-out: Leishmania donovani IC50 Infected Macrophage
Protocol: as §1
The results from the Leishmania donovani assay (Table 2) indicate activity commensurate with the positive control and current standard of care, miltefosine (2.9 µM) is observed in aplysulphurin (2, 3.1 μM), tetrahydroaplysulphurin-1 (4, 3.5 μM), dendrillin B (10, 3.5 μM), 8-ketodihydrogracilin (13, 4.5 μM), and triol 15 (4.5 μM).
as §4

[4] = J774A.1-cell cytotoxicity assay (uninfected macrophage); type: cell-based; conditions: mouse, J774A.1 macrophage cells (uninfected); Table 3; unit not given (μM in Table 2); read-out: J774 Cytotoxiciy
Protocol: as §1, §4

Leishmania donovani [5] = test system: Leishmania donovani; set-up: method as in PMID 32281798; conditions: J774A.1 macrophages, single point determination, ref [15], read-out: Leishmania donovani IC50 Infected Macrophage, cited from earlier work
J774A.1 macrophages [6] = test system: J774A.1 macrophages; set-up: method as in PMID 32281798; conditions: cytotoxicity, uninfected J774A.1 macrophages; single point determination; ref [15]; read-out: Leishmania donovani IC50 Uninfected Macrophage; cited from earlier work
[7] = test system: methicillin-resistant Staphylococcus aureus (MRSA) biofilm; set-up: method as in PMID 27175857; conditions: ref [17]; cited from earlier work

SMILES	inhibition at 5 µg/mL [1] [%]	IC50 (J774A.1 macrophages [2]) [µM]	inhibition at 5 µg/mL (Plasmodium falciparum) [%]	inhibition at 25 µg/mL (MRSA biofilm) [%]	inhibition at 50 µg/mL (MRSA biofilm) [%]	inhibition at 100 µg/mL (MRSA biofilm) [%]	IC50 (Leishmania donovani [3]) [µM]	IC50 [4] [µM]	Pathogen Activity, MRSA Biofilm (MRSA biofilm; Table 3, no unit printed there (58 μM))	concentration achieving 50% eradication of MRSA biofilm (MRSA biofilm; tested at 100, 50 and 25 µg/mL, 50% eradication) [µg/mL]	concentration at which activity against MRSA biofilm was exhibited (MRSA biofilm; tested at 100, 50 and 25 µg/mL, eradication level not given) [µg/mL]	IC50 (Leishmania donovani [5]) [µM]	IC50 (J774A.1 macrophages [6]) [µM]	potency against MRSA biofilm relative to planktonic MRSA [7]	concentration with modest activity (60% inhibition) against P. falciparum infected liver cells (Plasmodium falciparum; screen at fixed 5 µg/mL, 60% inhibition level) [µM]	cytotoxicity towards uninfected primary human hepatocytes (in words) ([1]; 5 µg/mL screen)	concentration with 100% inhibition against P. falciparum infected liver cells (Plasmodium falciparum; screen at fixed 5 µg/mL, 100% inhibition level (highest level)) [µM]	IC50 (Leishmania donovani [5]; listed as 2) [µM]
CC(=O)OC1OC(OC(C)=O)C2C1CCC(C1(C)CCCC(C)(C)C1)C21OC1C (stereo not shown) [Dendrillin A (9), dendrillin A]	2.9	9	4.3	0	0	0	6											
C[C@H]1C(=O)O[C@@H]2OC[C@@H]3CCC([C@@]4(C)CCCC(C)(C)C4)=C1[C@@H]32 [Cadlinolide C (8), cadlinolide C]	0	> 160	0	2.6	35	85.4	16											
CCC1=C(C=O)[C@H](C(=O)OC)CC[C@@H]1[C@@]1(C)CCCC(C)(C)C1 (relative stereo) [Dendrillin C (11), dendrillin C]	3.4	> 160	1.3	84	97.8	99.2	> 31	> 160	78	25	50							
C/C=C1/[C@@H]2[C@@H](OC(C)=O)O[C@@H](OC(C)=O)[C@@H]2CC[C@@H]1[C@@]1(C)CCCC(C)(C)C1 [9,11-Dihydrogracilin A (3), 9,11-dihydrogracilin A]	1.1		0	0	29.1	12.7						9.1	23					
CC(=O)O[C@@H]1O[C@H]2OC(=O)C3=C(C)[C@@H]([C@@]4(C)CCCC(C)(C)C4)CC[C@@H]1[C@H]32 [darwinolide (1), darwinolide]														four times more potent against the biofilm than it was against planktonic MRSA				
CC(=O)O[C@@H]1OC2OC(=O)[C@H](C)C34OOC([C@@]5(C)CCCC(C)(C)C5)(CC[C@@H]1C23)O4 (stereo partly shown) [Ozonide (14), tetrahydroaplysulphurin ozonide]	18.6	17	61.7	17.7	40.6	99.9	9.9								≤ 15			
CC(=O)O[C@@H]1O[C@H]2OC(=O)[C@H](C)c3c([C@@]4(C)CCCC(C)(C)C4)ccc1c32 [Aplysulphurin (2), aplysulphurin]	7.6		100	6.5	29.4	21.1						3.1	12			no discernable cytotoxicity	≤ 13	< 10
C/C(=C1\CCCC1(C)C)[C@H]1CC[C@H]2C(=O)OC[C@H]2C1(C)C [Glaciolide (6), glaciolide]	4.5	> 170	0	20	20.8	32.2	8.8											
